Data reported in PubChem BioAssay AID1259411 (Chemical Carcinogenesis Research Information System (CCRIS), 2018).
Active and inactive are the calls of the source. How the calls were made is not given here.

Tested on: rodent carcinogenicity bioassays, tumor incidence
Assay: CCRIS carcinogenicity studies
Outline: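 NCI-built, expert-reviewed records of carcinogenicity and related test outcomes (mutagenicity, tumor promotion/inhibition) compiled from published and report sources, historical span 1985-2011, not updated.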

**Q.** What does the source list for C=CC#N?
**A.** carcinogen call (Species: HUMAN, Route: INHALATION, Tumor Site: Type of Lesion: LUNG, COLON): active; positive; carcinogen call (Species: MOUSE, Strain/Sex: B6C3F1/FEMALE, Route: GAVAGE, Dose: 0, 2.5, 10, 20 MG/KG 5D/WK FOR 104-105 WK (STUDY DURATION: 104-105 WK), Dose: 0, 2.5, 10, 20 MG/KG 5D/WK FOR 104-105 WK (STUDY DURATION: 104-105 WK), Tumor Site: Type of Lesion: FORESTOMACH: SQUAMOUS CELL PAPILLOMA, SQUAMOUS CELL CARCINOMA, SQUAMOUS CELL PAPILLOMA OR CARCINOMA, HARDERIAN GLAND: AD): active; positive; carcinogen call (Species: MOUSE, Strain/Sex: B6C3F1/FEMALE, Route: GAVAGE, Dose: 0, 2.5, 10, 20 MG/KG 5D/WK FOR 104-105 WK (STUDY DURATION: 104-105 WK), Dose: 0, 2.5, 10, 20 MG/KG 5D/WK FOR 104-105 WK (STUDY DURATION: 104-105 WK), Tumor Site: Type of Lesion: OVARY: MALIGNANT GRANULOSA CELL TUMOR, LUNG (ALVEOLAR/BRONCHIOLAR): ADENOMA OR CARCINOMA): equivocal; carcinogen call (Species: MOUSE, Strain/Sex: B6C3F1/FEMALE, Route: GAVAGE, Dose: 0, 2.5, 10, 20 MG/KG/D 5 D/WK FOR 105 WK (STUDY DURATION: 105 WK), Dose: 0, 2.5, 10, 20 MG/KG/D 5 D/WK FOR 105 WK (STUDY DURATION: 105 WK), Tumor Site: Type of Lesion: FORESTOMACH: SQUAMOUS CELL PAPILLOMA, SQUAMOUS CELL CARCINOMA, SQUAMOUS CELL PAPILLOMA OR CARCINOMA, EPITHELIAL HYPERPLA): active; positive; carcinogen call (Species: MOUSE, Strain/Sex: B6C3F1/MALE, Route: GAVAGE, Dose: 0, 2.5, 10, 20 MG/KG 5D/WK FOR 104-105 WK (STUDY DURATION: 104-105 WK), Dose: 0, 2.5, 10, 20 MG/KG 5D/WK FOR 104-105 WK (STUDY DURATION: 104-105 WK), Tumor Site: Type of Lesion: FORESTOMACH: SQUAMOUS CELL PAPILLOMA, SQUAMOUS CELL CARCINOMA, SQUAMOUS CELL PAPILLOMA OR CARCINOMA, HARDERIAN GLAND: AD): active; positive; carcinogen call (Species: MOUSE, Strain/Sex: B6C3F1/MALE, Route: GAVAGE, Dose: 0, 2.5, 10, 20 MG/KG/D 5 D/WK FOR 105 WK (STUDY DURATION: 105 WK), Dose: 0, 2.5, 10, 20 MG/KG/D 5 D/WK FOR 105 WK (STUDY DURATION: 105 WK), Tumor Site: Type of Lesion: FORESTOMACH: SQUAMOUS CELL PAPILLOMA, SQUAMOUS CELL CARCINOMA, SQUAMOUS CELL PAPILLOMA OR CARCINOMA, EPITHELIAL HYPERPLA): active; positive; carcinogen call (Species: RAT, Route: INHALATION, Tumor Site: Type of Lesion: MAMMARY GLAND, NERVOUS SYSTEM (CENTRAL), EAR (ZYMBAL GLAND), Tumor Site: Type of Lesion: MAMMARY GLAND, NERVOUS SYSTEM (CENTRAL), EAR (ZYMBAL GLAND)): active; positive; carcinogen call (Species: RAT, Route: ORAL, Tumor Site: Type of Lesion: FORESTOMACH, STOMACH, NERVOUS SYSTEM (CENTRAL), EAR (ZYMBAL GLAND), Tumor Site: Type of Lesion: FORESTOMACH, STOMACH, NERVOUS SYSTEM (CENTRAL), EAR (ZYMBAL GLAND)): active; positive; carcinogen call (Species: RAT, Strain/Sex: F344/FEMALE, Route: ORAL, Dose: 0, 1, 3, 10, 30, 100 PPM IN DRINKING WATER FOR LIFETIME (STUDY DURATION: 26 MO), Dose: 0, 1, 3, 10, 30, 100 PPM IN DRINKING WATER FOR LIFETIME (STUDY DURATION: 26 MO), Tumor Site: Type of Lesion: BRAIN: ASTROCYTOMA, ZYMBAL'S GLAND: SQUAMOUS CELL PAPILLOMA, ADENOMA/CARCINOMA, MAMMARY GLAND: FIBROADENOMA, FORESTOMAC, Tumor Site: Type of Lesion: BRAIN: ASTROCYTOMA, ZYMBAL'S GLAND: SQUAMOUS CELL PAPILLOMA, ADENOMA/CARCINOMA, MAMMARY GLAND: FIBROADENOMA, FORESTOMAC): active; positive; carcinogen call (Species: RAT, Strain/Sex: F344/MALE, Route: ORAL, Dose: 0, 1, 3, 10, 30, 100 PPM IN DRINKING WATER FOR LIFETIME (STUDY DURATION: 26 MO), Dose: 0, 1, 3, 10, 30, 100 PPM IN DRINKING WATER FOR LIFETIME (STUDY DURATION: 26 MO), Tumor Site: Type of Lesion: BRAIN: ASTROCYTOMA, SPINAL CORD: ASTROCYTOMA, ZYMBAL'S GLAND: SQUAMOUS CELL PAPILLOMA, ADENOMA/CARCINOMA, FORESTOMACH: S, Tumor Site: Type of Lesion: BRAIN: ASTROCYTOMA, SPINAL CORD: ASTROCYTOMA, ZYMBAL'S GLAND: SQUAMOUS CELL PAPILLOMA, ADENOMA/CARCINOMA, FORESTOMACH: S): active; positive; carcinogen call (Species: RAT, Strain/Sex: SPRAGUE-DAWLEY/FEMALE, Route: GAVAGE, Dose: 0, 0.1, 10 MG/KG/D 7D/WK FOR 20 MO (STUDY DURATION: 20 MO), Dose: 0, 0.1, 10 MG/KG/D 7D/WK FOR 20 MO (STUDY DURATION: 20 MO), Tumor Site: Type of Lesion: BRAIN: ASTROCYTOMA, ZYMBAL'S GLAND/EAR CANAL: CARCINOMA, FORESTOMACH: SQUAMOUS CELL PAPILLOMA/PAPILLOMA, SQUAMOUS CELL C, Tumor Site: Type of Lesion: BRAIN: ASTROCYTOMA, ZYMBAL'S GLAND/EAR CANAL: CARCINOMA, FORESTOMACH: SQUAMOUS CELL PAPILLOMA/PAPILLOMA, SQUAMOUS CELL C): active; positive; carcinogen call (Species: RAT, Strain/Sex: SPRAGUE-DAWLEY/FEMALE, Route: GAVAGE, Dose: 0, 5 MG/KG BW IN OLIVE OIL 3/WK FOR 52 WK (STUDY DURATION: LIFETIME), Tumor Site: Type of Lesion: [BRAIN WAS ONLY SITE EVALUATED]): inactive; negative
